# Like-named read-outs stand apart in the source and are kept apart here.
# Tests used:
# [1] = In vitro viability test (MTT) on non-cancerous Vero cell lines; type: cell-based; settings: African green monkey, Vero cells (non-cancerous), non-cancerous model, read-out: Cytotoxicity Against Vero Cell Lines (IC50)
# Excerpt: (§1) An in-vitro viability test was used to investigate the safety patterns of the tested compounds at different concentrations. The Vero cell lines were used as a non-cancerous model to investigate the safety of the targeted compounds. […] Such values are very high in comparison to the corresponding values on the cancer cell lines, which reflect the high in vitro safety profiles of the tested members towards the examined non-cancerous cell lines (Table 2).
# HepG2 = test: In vitro anti-proliferative activity (MTT assay), HepG2; settings: for Selectivity index (SI) (HepG2): cytotoxicity against Vero cells/cytotoxicity against HepG2
# HCT-116 = test: In vitro anti-proliferative activity (MTT assay), HCT-116; settings: for Selectivity index (SI) (HCT-116): Cytotoxicity against Vero cells/cytotoxicity against HCT-116
# human VEGFR-2 = human VEGFR-2 (Homo sapiens, UniProt P35968); test: In vitro VEGFR-2 enzyme inhibition assay (Human VEGFR-2 ELISA kit)
# Vero cell lines = test: In vitro viability test (MTT) on non-cancerous Vero cell lines; type: cell-based; settings: non-cancerous model, read-out: Cytotoxicity Against Vero Cell Lines (IC50)
# Excerpt: as §1
# HCT-116 cells [2] = test: Flow cytometry analysis for cell cycle (PI staining); type: cell-based, human; settings: HCT-116, 5.4 µM, 24 h
# HCT-116 cells [3] = test: Flow cytometry analysis for apoptosis (Annexin V and PI double staining); type: cell-based, human; settings: HCT-116, 5.4 µM, 24 h
# TNF-α = TNF-α level in treated HCT-116 cells (qRT-PCR); type: cell-based; settings: Homo sapiens; HCT-116, 5.4 µM, 24 h; control 82.47
# IL-6 = IL-6 level in treated HCT-116 cells (qRT-PCR); type: cell-based, human; settings: HCT-116, 5.4 µM, 24 h
# Bax = Bax expression level in treated HCT-116 cells (qRT-PCR); settings: HCT-116, 5.4 µM, 24 h
# Bcl-2 = Bcl-2 expression level in treated HCT-116 cells (qRT-PCR); settings: HCT-116, 5.4 µM, 24 h
# caspase-8 = test: Caspase-8 expression level in treated HCT-116 cells (qRT-PCR); settings: HCT-116, 5.4 µM, 24 h
# [4] = Homo sapiens, HepG2, read-out: Cytotoxicity IC50 HepG2
# [5] = Homo sapiens, HCT-116, read-out: Cytotoxicity IC50 HCT-116
# human VEGFR-2, sequence (P35968 20-1356): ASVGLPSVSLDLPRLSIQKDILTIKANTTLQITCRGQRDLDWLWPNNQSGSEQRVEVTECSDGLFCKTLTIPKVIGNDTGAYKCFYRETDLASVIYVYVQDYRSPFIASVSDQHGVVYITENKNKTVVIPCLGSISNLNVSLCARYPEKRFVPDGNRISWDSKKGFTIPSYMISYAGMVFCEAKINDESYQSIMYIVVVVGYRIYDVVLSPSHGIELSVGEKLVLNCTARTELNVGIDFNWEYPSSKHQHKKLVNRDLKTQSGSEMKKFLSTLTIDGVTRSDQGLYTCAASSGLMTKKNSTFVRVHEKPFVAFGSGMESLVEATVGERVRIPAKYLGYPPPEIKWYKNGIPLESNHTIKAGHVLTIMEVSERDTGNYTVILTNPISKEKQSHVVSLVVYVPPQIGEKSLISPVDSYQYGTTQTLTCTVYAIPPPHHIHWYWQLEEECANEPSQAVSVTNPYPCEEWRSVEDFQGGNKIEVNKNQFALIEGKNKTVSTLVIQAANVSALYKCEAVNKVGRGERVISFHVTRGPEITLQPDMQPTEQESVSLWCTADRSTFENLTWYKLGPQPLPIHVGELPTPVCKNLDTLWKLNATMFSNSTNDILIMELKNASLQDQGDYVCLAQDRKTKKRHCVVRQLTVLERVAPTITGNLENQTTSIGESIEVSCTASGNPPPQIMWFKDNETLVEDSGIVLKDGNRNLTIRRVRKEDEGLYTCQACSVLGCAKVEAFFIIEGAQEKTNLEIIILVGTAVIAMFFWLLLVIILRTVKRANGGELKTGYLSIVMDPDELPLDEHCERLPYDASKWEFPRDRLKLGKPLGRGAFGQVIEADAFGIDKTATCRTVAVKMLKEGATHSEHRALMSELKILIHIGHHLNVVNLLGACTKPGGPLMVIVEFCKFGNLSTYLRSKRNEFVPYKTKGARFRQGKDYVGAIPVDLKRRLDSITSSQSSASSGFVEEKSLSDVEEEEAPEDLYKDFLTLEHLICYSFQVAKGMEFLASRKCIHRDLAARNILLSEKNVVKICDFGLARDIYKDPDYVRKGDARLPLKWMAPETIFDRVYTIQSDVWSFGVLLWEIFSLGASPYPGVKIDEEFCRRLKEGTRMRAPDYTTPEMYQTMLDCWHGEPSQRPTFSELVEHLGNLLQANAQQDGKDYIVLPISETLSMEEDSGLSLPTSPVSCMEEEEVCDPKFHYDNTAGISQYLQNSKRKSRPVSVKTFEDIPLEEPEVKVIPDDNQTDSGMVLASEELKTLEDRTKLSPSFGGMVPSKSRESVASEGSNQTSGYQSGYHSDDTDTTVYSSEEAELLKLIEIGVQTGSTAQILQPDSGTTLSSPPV
Compound,IC50 [1] [µM],IC50 (HepG2; [4]) [µM],Selectivity index (SI) (HepG2) (HepG2),Selectivity index (SI) (HCT-116) (HCT-116),IC50 (HCT-116; [5]) [µM],IC50 (human VEGFR-2) [µM],further results
"CC(=NNC(N)=S)c1ccc(NC(=O)c2cccnc2)cc1 [Compound 11, N-(4-(1-(2-Carbamothioylhydrazono)ethyl)phenyl)nicotinamide]",105,20.3 ± 0.064,5.19,4.20,25.07 ± 0.07,0.0834 ± 0.00553,
"COc1ccc(/C=N/NC(=O)c2ccc(NC(=O)c3cccnc3)cc2)cc1OC [Compound 7, (E)-N-(4-(2-(3,4-Dimethoxybenzylidene)hydrazine-1-carbonyl)phenyl)-nicotinamide]",128,18.8 ± 0.061,6.80,6.66,19.2 ± 0.062,0.113 ± 0.00723,
"(E)-N-(4-(1-(2-(2,6-Dinitrophenyl)hydrazono)ethyl)phenyl)nicotinamide [Compound 12]",,,5.45,5.24,,,"IC50 (Vero cell lines): 95.4 µM; IC50 (HepG2; read-out: Cytotoxicity IC50 HepG2, MTT, mean ± S.D. of three separate experiments): 17.5 ± 0.058 µM; IC50 (HCT-116; read-out: Cytotoxicity IC50 HCT-116, MTT, mean ± S.D. of three separate experiments): 18.2 ± 0.06 µM; IC50 (human VEGFR-2; read-out: VEGFR-2 IC50, mean ± S.D. of three separate experiments): 0.115 ± 0.00733 µM"
"CN(C)c1ccc(/C=C/C=N/NC(=O)c2ccc(NC(=O)c3cccnc3)cc2)cc1 [Compound 8, N-(4-(2-((1E,2E)-3-(4-(Dimethylamino)phenyl)allylidene)hydrazine-1-carbonyl)phenyl)nicotinamide]",85.2,7.1 ± 0.03,12.01,15.79,5.4 ± 0.02,0.077 ± 0.00425,"Augmentation of G0–G1 phase vs control (HCT-116 cells [2]): 1.42 fold; Decline of cell population at G2/M phase vs control (HCT-116 cells [2]): 2.11 fold; Cell Cycle Distribution %G2-M (HCT-116 cells [2]; control 27.29): 12.91%; Cell Cycle Distribution % S (HCT-116 cells [2]; control 33.75): 31.47%; Cell Cycle Distribution %G0-G1 (HCT-116 cells [2]; control 38.96): 55.62%; Cell Cycle Distribution %Pre-G1 (HCT-116 cells [2]; control printed 19.82): 3.05%; Increase in total apoptosis vs control (HCT-116 cells [3]): 6.5 fold; Necrosis (HCT-116 cells [3]; control 0.62): 1.85%; Apoptosis Early (HCT-116 cells [3]; control 0.7): 3.74%; Apoptosis Late (HCT-116 cells [3]; control 1.73): 14.23%; Apoptosis Total (HCT-116 cells [3]; control 3.05): 19.82%; inhibition at 5.4 µM (TNF-α): 92.4%; Effect on the level of IL-6 (in words) (IL-6): non-significant reduction; inhibition at 5.4 µM (IL-6; Homo sapiens, control 93.15): 94.1%; Increase in Bax level vs control cells (Bax): 9.2 fold; Bax expression level (Bax; control 42.19): 387.26 pg/mL; Decrease in Bcl-2 level vs control cells (Bcl-2): 3 fold; Bcl-2 expression level (Bcl-2; control 5.603): 1.844 pg/mL; Increase in caspase-8 level vs control cells (caspase-8): 9.4 fold; Caspase-8 expression level (caspase-8; control 50.317): 472.3 pg/mL"
"CNC(=O)c1cc(Oc2ccc(NC(=O)Nc3ccc(Cl)c(C(F)(F)F)c3)cc2)ccn1 [Sorafenib, sorafenib, reference compound]",,7.4 ± 0.235,,,9.3 ± 0.201,,
"O=C(N/N=C/c1ccc(Cl)cc1Cl)c1ccc(NC(=O)c2cccnc2)cc1 [Compound 6, (E)-N-(4-(2-(2,4-Dichlorobenzylidene)hydrazine-1-carbonyl)phenyl)-nicotinamide]",84.7,16.5 ± 0.057,5.13,4.76,17.8 ± 0.059,0.172 ± 0.0102,

# Reference: paper PMC9268560, “Design, Synthesis, In Silico and In Vitro Studies of New Immunomodulatory Anticancer Nicotinamide Derivatives Targeting VEGFR-2” (Molecules, 2022)
